Experimental data reported in patent US10344060B2 (priority 2013, dated 2019).

Key:
hNav1.4 = hNav1.4 (Homo sapiens, UniProt P35499); assay: cell-based; assay type: cell-based; conditions: ratio of PX tonic IC50 values
hNav1.5 = hNav1.5 (Homo sapiens, UniProt Q14524); assay: cell-based; conditions: ratio of PX tonic IC50 values
hNav1.5, sequence (Q14524 whole entry): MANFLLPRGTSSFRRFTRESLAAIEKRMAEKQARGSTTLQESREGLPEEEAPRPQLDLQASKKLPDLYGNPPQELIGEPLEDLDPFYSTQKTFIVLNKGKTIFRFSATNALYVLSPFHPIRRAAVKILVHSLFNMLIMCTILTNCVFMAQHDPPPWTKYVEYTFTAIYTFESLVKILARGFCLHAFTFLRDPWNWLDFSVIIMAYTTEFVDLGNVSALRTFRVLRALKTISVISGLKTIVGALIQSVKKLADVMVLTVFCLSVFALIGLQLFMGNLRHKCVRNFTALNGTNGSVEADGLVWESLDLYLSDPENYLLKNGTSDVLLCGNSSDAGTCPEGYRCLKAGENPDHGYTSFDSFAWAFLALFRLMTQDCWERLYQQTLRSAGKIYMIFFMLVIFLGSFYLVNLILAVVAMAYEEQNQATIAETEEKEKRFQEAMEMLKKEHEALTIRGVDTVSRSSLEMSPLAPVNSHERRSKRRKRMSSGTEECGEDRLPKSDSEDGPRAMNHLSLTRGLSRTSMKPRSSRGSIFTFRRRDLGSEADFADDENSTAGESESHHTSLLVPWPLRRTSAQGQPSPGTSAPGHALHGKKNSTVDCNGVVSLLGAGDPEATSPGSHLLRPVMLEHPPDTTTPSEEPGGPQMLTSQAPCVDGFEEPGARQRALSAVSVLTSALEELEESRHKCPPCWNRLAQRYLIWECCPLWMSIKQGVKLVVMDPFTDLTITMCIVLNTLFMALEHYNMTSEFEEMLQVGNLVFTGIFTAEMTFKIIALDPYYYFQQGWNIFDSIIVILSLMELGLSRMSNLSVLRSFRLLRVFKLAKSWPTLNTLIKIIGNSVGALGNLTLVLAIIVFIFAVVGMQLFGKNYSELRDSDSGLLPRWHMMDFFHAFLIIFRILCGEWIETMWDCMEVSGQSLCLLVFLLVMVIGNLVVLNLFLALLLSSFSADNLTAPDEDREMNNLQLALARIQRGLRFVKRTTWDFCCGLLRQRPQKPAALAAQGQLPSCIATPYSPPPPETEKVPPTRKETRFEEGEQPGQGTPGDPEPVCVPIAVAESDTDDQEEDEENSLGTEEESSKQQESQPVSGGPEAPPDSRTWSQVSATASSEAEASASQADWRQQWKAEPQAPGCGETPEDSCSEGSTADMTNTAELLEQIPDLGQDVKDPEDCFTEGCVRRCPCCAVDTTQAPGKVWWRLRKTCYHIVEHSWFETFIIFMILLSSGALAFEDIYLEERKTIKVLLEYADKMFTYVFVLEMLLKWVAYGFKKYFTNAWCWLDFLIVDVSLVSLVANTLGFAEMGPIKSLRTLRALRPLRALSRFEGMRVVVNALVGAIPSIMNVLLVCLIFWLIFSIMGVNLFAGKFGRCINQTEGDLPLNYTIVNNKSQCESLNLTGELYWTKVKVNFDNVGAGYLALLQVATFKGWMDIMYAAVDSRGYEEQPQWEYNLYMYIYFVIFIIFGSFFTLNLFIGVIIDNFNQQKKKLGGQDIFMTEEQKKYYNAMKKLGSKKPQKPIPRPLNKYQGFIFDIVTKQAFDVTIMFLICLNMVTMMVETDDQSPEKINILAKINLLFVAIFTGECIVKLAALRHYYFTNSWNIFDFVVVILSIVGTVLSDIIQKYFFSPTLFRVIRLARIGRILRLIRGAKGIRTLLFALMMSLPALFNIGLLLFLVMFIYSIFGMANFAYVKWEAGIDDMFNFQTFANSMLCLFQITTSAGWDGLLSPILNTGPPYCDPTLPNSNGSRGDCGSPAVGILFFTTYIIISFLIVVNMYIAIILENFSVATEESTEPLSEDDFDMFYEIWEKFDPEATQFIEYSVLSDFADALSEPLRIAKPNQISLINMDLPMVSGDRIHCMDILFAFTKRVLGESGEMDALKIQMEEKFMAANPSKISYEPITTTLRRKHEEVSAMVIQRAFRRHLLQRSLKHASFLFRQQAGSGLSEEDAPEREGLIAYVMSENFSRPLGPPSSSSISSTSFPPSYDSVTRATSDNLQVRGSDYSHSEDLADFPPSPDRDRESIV

hNav1.4, sequence (P35499 whole entry): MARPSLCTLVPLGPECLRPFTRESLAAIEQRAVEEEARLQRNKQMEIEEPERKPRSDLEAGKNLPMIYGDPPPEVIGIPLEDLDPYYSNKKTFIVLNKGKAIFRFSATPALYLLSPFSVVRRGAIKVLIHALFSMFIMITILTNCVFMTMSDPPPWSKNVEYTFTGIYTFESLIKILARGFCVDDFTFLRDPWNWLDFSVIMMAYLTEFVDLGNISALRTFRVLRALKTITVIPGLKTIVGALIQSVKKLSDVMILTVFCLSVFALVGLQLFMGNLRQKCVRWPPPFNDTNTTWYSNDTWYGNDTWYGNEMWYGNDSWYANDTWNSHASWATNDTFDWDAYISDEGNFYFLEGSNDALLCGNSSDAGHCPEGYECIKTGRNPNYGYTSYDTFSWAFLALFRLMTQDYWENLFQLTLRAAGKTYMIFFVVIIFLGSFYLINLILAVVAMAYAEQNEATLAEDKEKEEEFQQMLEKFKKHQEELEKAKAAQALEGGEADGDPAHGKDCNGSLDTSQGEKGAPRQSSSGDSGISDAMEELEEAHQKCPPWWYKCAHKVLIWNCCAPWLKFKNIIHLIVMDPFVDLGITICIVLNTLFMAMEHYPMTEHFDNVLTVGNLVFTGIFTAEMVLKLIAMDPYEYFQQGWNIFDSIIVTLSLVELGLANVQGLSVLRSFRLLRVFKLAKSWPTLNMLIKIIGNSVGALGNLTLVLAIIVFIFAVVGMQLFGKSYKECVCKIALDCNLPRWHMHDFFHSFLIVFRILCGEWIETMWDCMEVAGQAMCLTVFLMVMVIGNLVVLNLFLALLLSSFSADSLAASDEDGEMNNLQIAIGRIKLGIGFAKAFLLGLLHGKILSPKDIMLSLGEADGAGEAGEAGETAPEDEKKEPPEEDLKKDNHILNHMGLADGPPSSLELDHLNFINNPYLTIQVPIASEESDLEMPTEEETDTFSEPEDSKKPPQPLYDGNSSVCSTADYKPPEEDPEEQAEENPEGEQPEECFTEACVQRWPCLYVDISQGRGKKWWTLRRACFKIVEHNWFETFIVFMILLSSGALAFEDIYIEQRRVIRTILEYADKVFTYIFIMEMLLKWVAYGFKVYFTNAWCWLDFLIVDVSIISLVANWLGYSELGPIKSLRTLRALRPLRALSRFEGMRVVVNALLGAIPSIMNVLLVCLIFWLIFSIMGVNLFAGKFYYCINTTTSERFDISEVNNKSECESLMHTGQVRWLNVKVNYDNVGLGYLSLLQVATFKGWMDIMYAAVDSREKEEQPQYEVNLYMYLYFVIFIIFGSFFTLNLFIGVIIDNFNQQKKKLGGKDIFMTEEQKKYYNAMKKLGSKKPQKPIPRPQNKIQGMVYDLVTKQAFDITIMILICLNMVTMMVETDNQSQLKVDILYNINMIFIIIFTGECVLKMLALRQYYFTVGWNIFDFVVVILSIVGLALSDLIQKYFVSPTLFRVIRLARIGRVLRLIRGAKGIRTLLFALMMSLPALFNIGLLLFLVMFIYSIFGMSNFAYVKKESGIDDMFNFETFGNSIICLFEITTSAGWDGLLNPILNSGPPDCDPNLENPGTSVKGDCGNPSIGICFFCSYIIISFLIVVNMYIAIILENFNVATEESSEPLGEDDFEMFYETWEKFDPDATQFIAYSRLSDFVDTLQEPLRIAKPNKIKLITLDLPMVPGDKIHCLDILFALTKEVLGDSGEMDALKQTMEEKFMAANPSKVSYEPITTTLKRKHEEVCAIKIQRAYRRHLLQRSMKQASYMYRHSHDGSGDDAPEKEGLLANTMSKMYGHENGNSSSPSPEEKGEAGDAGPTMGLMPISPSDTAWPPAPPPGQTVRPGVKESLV

SMILES	Nav1.4/Nav1.7 (hNav1.4; Table 12)	Nav1.5/Nav1.7 (hNav1.5; Table 12)	Nav1.4/Nav1.7 (hNav1.4; Table 13)	Nav1.5/Nav1.7 (hNav1.5; Table 13)
CCCC[C@@H]1NC(=O)[C@H](Cc2c[nH]c3ccccc23)NC(=O)[C@H](CCCCN)NC(=O)[C@H](CCC(N)=O)NC(=O)[C@@H](NC(=O)[C@@H](N)Cc2ccc(O)cc2)CSSC[C@@H]2NC(=O)[C@@H]3CSSC[C@@H](C(=O)N[C@@H](CCCNC(=N)N)C(=O)N[C@@H](CCCCN)C(=O)N[C@H](C(=O)N[C@@H](Cc4c[nH]c5ccccc45)C(N)=O)[C@@H](C)CC)NC(=O)[C@H](Cc4c[nH]c5ccccc45)NC(=O)[C@H](CC(C)C)NC(=O)[C@H](CCCCN)NC(=O)[C@H](CSSC[C@H](NC(=O)[C@H]([C@@H](C)O)NC(=O)[C@H](Cc4c[nH]c5ccccc45)NC1=O)C(=O)N[C@@H](CC(=O)O)C(=O)N[C@@H](CO)C(=O)N[C@@H](CCCCN)C(=O)N[C@@H](CCCNC(=N)N)C(=O)N[C@@H](CCCCN=[N+]=[N-])C(=O)N3)NC(=O)[C@H](CCC(=O)O)NC(=O)[C@H](CC(C)C)NC(=O)CNC(=O)[C@H](CCC(=O)O)NC2=O [compound 306]	550	1712		
C#CC[C@@H]1NC(=O)[C@@H]2CSSC[C@H](NC(=O)[C@@H](N)Cc3ccc(O)cc3)C(=O)N[C@@H](CCC(N)=O)C(=O)N[C@@H](CCCCN)C(=O)N[C@@H](Cc3c[nH]c4ccccc34)C(=O)N[C@@H](CCCC)C(=O)N[C@@H](Cc3c[nH]c4ccccc34)C(=O)N[C@@H]([C@@H](C)O)C(=O)N[C@H]3CSSC[C@H](NC(=O)[C@H](CCCNC(=N)N)NC(=O)[C@H](CC(C)C)NC(=O)CNC1=O)C(=O)N[C@@H](CCCCN)C(=O)N[C@@H](CC(C)C)C(=O)N[C@@H](Cc1c[nH]c4ccccc14)C(=O)N[C@H](C(=O)N[C@@H](CCCNC(=N)N)C(=O)N[C@@H](CCCCN)C(=O)N[C@@H](CCC(=O)O)C(=O)N[C@H](C(N)=O)[C@@H](C)CC)CSSC[C@H](NC(=O)[C@H](C)NC(=O)[C@H](CCCNC(=N)N)NC(=O)[C@H](CCCCN)NC(=O)[C@H](CO)NC(=O)[C@H](CC(=O)O)NC3=O)C(=O)N2 [compound 332]	34	849		
CCCC[C@@H]1NC(=O)[C@H](Cc2c[nH]c3ccccc23)NC(=O)[C@H](CCCCN)NC(=O)[C@H](CCC(N)=O)NC(=O)[C@@H](NC(=O)[C@H](Cc2ccc(O)cc2)NC(=O)[C@H](CC#N)NC(=O)[C@@H](N)CCCCN)CSSC[C@@H]2NC(=O)[C@@H]3CSSC[C@@H](C(=O)N[C@@H](CCCNC(=N)N)C(=O)N[C@@H](CCCCN)C(=O)N[C@@H](CCC(=O)O)C(=O)N[C@H](C(N)=O)[C@@H](C)CC)NC(=O)[C@H](Cc4c[nH]c5ccccc45)NC(=O)[C@H](CC(C)C)NC(=O)[C@H](CCCCN)NC(=O)[C@H](CSSC[C@H](NC(=O)[C@H]([C@@H](C)O)NC(=O)[C@H](Cc4c[nH]c5ccccc45)NC1=O)C(=O)N[C@@H](CC(=O)O)C(=O)N[C@@H](CO)C(=O)N[C@@H](CCCCN)C(=O)N[C@@H](CCCNC(=N)N)C(=O)N[C@@H](CCCCNC(=O)[C@@H](N)Cc1cn(CCOCCOCCOCCOCCOCCOCCOCCOCCOCCOCCN)nn1)C(=O)N3)NC(=O)[C@H](CCCNC(=N)N)NC(=O)[C@H](CC(C)C)NC(=O)CNC(=O)[C@H](CCC(=O)O)NC2=O [compound 891]			66	655
C#CC[C@@H]1NC(=O)[C@H](CCCNC(=N)N)NC(=O)[C@H](CCCCN)NC(=O)[C@H](CO)NC(=O)[C@H](CC(=O)O)NC(=O)[C@@H]2CSSC[C@@H]3NC(=O)[C@H](CCC(=O)O)NC(=O)[C@H](CC(C)C)NC(=O)CNC(=O)[C@H](CCC(=O)O)NC(=O)[C@H](CSSC[C@H](NC(=O)[C@@H](N)Cc4ccc(O)cc4)C(=O)N[C@@H](CCC(N)=O)C(=O)N[C@@H](CCCCN)C(=O)N[C@@H](Cc4c[nH]c5ccccc45)C(=O)N[C@@H](CCCC)C(=O)N[C@@H](Cc4c[nH]c5ccccc45)C(=O)N[C@@H]([C@@H](C)O)C(=O)N2)NC(=O)[C@H](CSSC[C@@H](C(=O)N[C@@H](CCCNC(=N)N)C(=O)N[C@@H](CCCCN)C(=O)N[C@H](C(=O)N[C@H](C(N)=O)[C@@H](C)CC)[C@@H](C)CC)NC(=O)[C@H](Cc2c[nH]c4ccccc24)NC(=O)[C@H](CC(C)C)NC(=O)[C@H](CCCCN)NC3=O)NC1=O [compound 345]	232	638		
CCCC[C@@H]1NC(=O)[C@H](Cc2c[nH]c3ccccc23)NC(=O)[C@H](CCCCN)NC(=O)[C@H](CCC(N)=O)NC(=O)[C@@H](NC(=O)[C@@H](N)Cc2ccc(O)cc2)CSSC[C@@H]2NC(=O)[C@@H]3CSSC[C@@H](C(=O)N[C@@H](CCCNC(=N)N)C(=O)N[C@@H](CCCCN)C(=O)N[C@H](C(=O)N[C@@H](Cc4c[nH]c5ccccc45)C(N)=O)[C@@H](C)CC)NC(=O)[C@H](Cc4c[nH]c5ccccc45)NC(=O)[C@H](CC(C)C)NC(=O)[C@H](CCCCN)NC(=O)[C@H](CSSC[C@H](NC(=O)[C@H]([C@@H](C)O)NC(=O)[C@H](Cc4c[nH]c5ccccc45)NC1=O)C(=O)N[C@@H](CC(=O)O)C(=O)N[C@@H](CO)C(=O)N[C@@H](CCCCN)C(=O)N[C@@H](CCCNC(=N)N)C(=O)N[C@@H](C)C(=O)N3)NC(=O)[C@H](CCC(=O)O)NC(=O)[C@H](CC(C)C)NC(=O)CNC(=O)[C@H](CCCCN=[N+]=[N-])NC2=O [compound 307]	40	83		
C#CC[C@H](N)C(=O)N[C@@H](Cc1ccc(O)cc1)C(=O)N[C@H]1CSSC[C@@H]2NC(=O)[C@@H]3CSSC[C@@H](C(=O)N[C@@H](CCCNC(=N)N)C(=O)N[C@@H](CCCCN)C(=O)N[C@H](C(=O)N[C@@H](Cc4c[nH]c5ccccc45)C(N)=O)[C@@H](C)CC)NC(=O)[C@H](Cc4c[nH]c5ccccc45)NC(=O)[C@H](CC(C)C)NC(=O)[C@H](CCCCN)NC(=O)[C@H](CSSC[C@H](NC(=O)[C@H]([C@@H](C)O)NC(=O)[C@H](Cc4c[nH]c5ccccc45)NC(=O)[C@H](Cc4ccccc4)NC(=O)[C@H](Cc4c[nH]c5ccccc45)NC(=O)[C@H](CCCCN)NC(=O)[C@H](CCC(N)=O)NC1=O)C(=O)N[C@@H](CC(=O)O)C(=O)N[C@@H](CO)C(=O)N[C@@H](CCCCN)C(=O)N[C@@H](CCCNC(=N)N)C(=O)N[C@@H](C)C(=O)N3)NC(=O)[C@H](CCC(=O)O)NC(=O)[C@H](CC(C)C)NC(=O)CNC(=O)[C@H](CCC(=O)O)NC2=O [compound 298]	44	52		
C#CC[C@H](N)C(=O)NCCOCCOCCOCCOCCOCCOCCOCCOCCOCCOCCOCCOCCC(=O)NCCCC[C@@H]1NC(=O)[C@H](CCCNC(=N)N)NC(=O)[C@H](CCCCN)NC(=O)[C@H](CO)NC(=O)[C@H](CC(=O)O)NC(=O)[C@@H]2CSSC[C@@H]3NC(=O)[C@H](CCC(=O)O)NC(=O)[C@H](CC(C)C)NC(=O)CNC(=O)[C@H](CCC(=O)O)NC(=O)[C@H](CSSC[C@H](NC(=O)[C@@H](N)Cc4ccc(O)cc4)C(=O)N[C@@H](CCC(N)=O)C(=O)N[C@@H](CCCCN)C(=O)N[C@@H](Cc4c[nH]c5ccccc45)C(=O)N[C@@H](CCCC)C(=O)N[C@@H](Cc4c[nH]c5ccccc45)C(=O)N[C@@H]([C@@H](C)O)C(=O)N2)NC(=O)[C@H](CSSC[C@@H](C(=O)N[C@@H](CCCNC(=N)N)C(=O)N[C@@H](CCCCN)C(=O)N[C@H](C(=O)N[C@@H](Cc2c[nH]c4ccccc24)C(N)=O)[C@@H](C)CC)NC(=O)[C@H](Cc2c[nH]c4ccccc24)NC(=O)[C@H](CC(C)C)NC(=O)[C@H](CCCCN)NC3=O)NC1=O [compound 290]	5	12		
C#CC[C@H](N)C(=O)NCCOCCOCCOCCOCCOCCOCCOCCOCCOCCOCCOCCOCCC(=O)NCCCC[C@@H]1NC(=O)[C@@H]2CSSC[C@H](NC(=O)[C@@H](N)Cc3ccc(O)cc3)C(=O)N[C@@H](CCC(N)=O)C(=O)N[C@@H](CCCCN)C(=O)N[C@@H](Cc3c[nH]c4ccccc34)C(=O)N[C@@H](CCCC)C(=O)N[C@@H](Cc3c[nH]c4ccccc34)C(=O)N[C@@H]([C@@H](C)O)C(=O)N[C@H]3CSSC[C@H](NC(=O)[C@H](CCC(=O)O)NC(=O)[C@H](CC(C)C)NC(=O)CNC1=O)C(=O)N[C@@H](CCCCN)C(=O)N[C@@H](CC(C)C)C(=O)N[C@@H](Cc1c[nH]c4ccccc14)C(=O)N[C@H](C(=O)N[C@@H](CCCNC(=N)N)C(=O)N[C@@H](CCCCN)C(=O)N[C@H](C(=O)N[C@@H](Cc1c[nH]c4ccccc14)C(N)=O)[C@@H](C)CC)CSSC[C@H](NC(=O)[C@H](C)NC(=O)[C@H](CCCNC(=N)N)NC(=O)[C@H](CCCCN)NC(=O)[C@H](CO)NC(=O)[C@H](CC(=O)O)NC3=O)C(=O)N2 [compound 292]	2	3		
C#CC[C@@H]1NC(=O)[C@@H]2CSSC[C@H](NC(=O)[C@@H](N)Cc3ccc(O)cc3)C(=O)N[C@@H](CCC(N)=O)C(=O)N[C@@H](CCCCN)C(=O)N[C@@H](Cc3c[nH]c4ccccc34)C(=O)N[C@@H](CCCC)C(=O)N[C@@H](Cc3c[nH]c4ccccc34)C(=O)N[C@@H]([C@@H](C)O)C(=O)N[C@H]3CSSC[C@H](NC(=O)[C@H](CCC(=O)O)NC(=O)[C@H](CC(C)C)NC(=O)CNC1=O)C(=O)N[C@@H](CCCCN)C(=O)N[C@@H](CC(C)C)C(=O)N[C@@H](Cc1c[nH]c4ccccc14)C(=O)N[C@H](C(=O)N[C@@H](CCCNC(=N)N)C(=O)N[C@@H](CCCCN)C(=O)N[C@@H](Cc1ccc(O)cc1)C(=O)N[C@H](C(N)=O)[C@@H](C)CC)CSSC[C@H](NC(=O)[C@H](C)NC(=O)[C@H](CCCNC(=N)N)NC(=O)[C@H](CCCCN)NC(=O)[C@H](CO)NC(=O)[C@H](CC(=O)O)NC3=O)C(=O)N2 [compound 317]	161	927		
C#CC[C@@H]1NC(=O)[C@H](CC(=O)O)NC(=O)[C@@H]2CSSC[C@@H]3NC(=O)[C@H](CCC(=O)O)NC(=O)[C@H](CC(C)C)NC(=O)CNC(=O)[C@H](CCC(=O)O)NC(=O)[C@H](CSSC[C@H](NC(=O)[C@@H](N)Cc4ccc(O)cc4)C(=O)N[C@@H](CCC(N)=O)C(=O)N[C@@H](CCCCN)C(=O)N[C@@H](Cc4c[nH]c5ccccc45)C(=O)N[C@@H](CCCC)C(=O)N[C@@H](Cc4c[nH]c5ccccc45)C(=O)N[C@@H]([C@@H](C)O)C(=O)N2)NC(=O)[C@H](CSSC[C@@H](C(=O)N[C@@H](CCCNC(=N)N)C(=O)N[C@@H](CCCCN)C(=O)N[C@H](C(=O)N[C@H](C(N)=O)[C@@H](C)CC)[C@@H](C)CC)NC(=O)[C@H](Cc2c[nH]c4ccccc24)NC(=O)[C@H](CC(C)C)NC(=O)[C@H](CCCCN)NC3=O)NC(=O)[C@H](C)NC(=O)[C@H](CCCNC(=N)N)NC(=O)[C@H](CCCCN)NC1=O [compound 344]	230	193		
